The numbers were not newly measured in patent US20240139208A1, “COMBINED PHARMACEUTICAL COMPOSITION CONTAINING CDK4/6 INHIBITOR AND USE THEREOF” (CHIA TAI TIANQING PHARMACEUTICAL GROUP CO., LTD., priority 2021, published 2024), which cites them from elsewhere.

For the molecule `C[C@]12CC[C@@H]3c4ccc(O)cc4C[C@@H](CCCCCCCCC[S+]([O-])CCCC(F)(F)C(F)(F)F)[C@H]3[C@@H]1CC[C@@H]2O` (stereo partly drawn) [Fulvestrant, 7-α-[9-(4,4,5,5,5-pentafluoropentylsulfinyl)nonyl]estra-1,3,5-(10)-triene-3,17-β-diol], the solubility in water entry is reported as “insoluble”.
